Patent US6281201A, “Base-modified derivatives of 2',5'-oligoadenylate and antiviral uses thereof” (Temple University- of the Commonwealth System of Higher …, priority 1999, dated 2001)

Legend:
HIV-1 = assay: Inhibition of HIV-1 replication: infected centers assay, HIV-1-induced syncytia formation; format: cell-based, HIV-1 strain IIIB; conditions: 300 μM (table footnote: 300 μm [sic]); PBL treated 2 h, HIV-1 IIIB MOI approx. 0.1; Sup T1 cells, read at 72 hours; mean of triplicates, variance did not exceed 5-10%
Protocol: (§1) Three studies were performed to determine the antiviral activity of the (2'-5')oligonucleotide derivatives of the present invention: (i) inhibition of HIV-1-replication, (ii) inhibition of HIV-1 reverse-transcriptase (RT) activity, and (iii) activation of recombinant human GST-RNase L. All compounds were tested at a concentration of 300 μM.
The infected centers assay as described by Henderson et al., Virology 1991, 182, 186, was used to measure the ability of the trimer core compounds of the invention to inhibit HIV-1 induced syncytia formation, an indicator of HIV-1 replication in T cells. Freshly isolated peripheral blood lymphocytes (PBL) were treated with 2-5A trimer or derivatives for 2 hours and infected with HIV-1 strain IIIB at a multiplicity of infection of approximately 0.1. The infected PBL were maintained in RPMI-1640 medium supplemented with 10% (v/v) heat-inactivated fetal calf serum at 37° C. in a humidified 5% CO2 in air atmosphere. After 48 hours, the cells were washed twice in Hank's balanced salt solution, serially diluted and seeded into multiple wells of a 96-well microtiter plate. Immediately, 2×10^5 exponentially growing Sup T1 cells were added to each well; Sup T1 cells readily form a syncytium with a cell which is productively infected with HIV-1. The wells were examined daily for the presence of syncytia, using a tissue culture microscope. The first signs of syncytia formation can be seen in 12 hours, with some complete syncytia developing by 24 hours. Final results were read at 72 hours. Each syncytium was counted as a single infected cell. The number of syncytia per seeded cell is determined and expressed as an infected center per infected cell. The number of syncytia per 10^4 cells was 121±16 for the control Sup T1 cells.
^b Inhibition of HIV-1 replication was determined by HIV-1-induced
syncytia formation (fold reduction) for each compound. The number of
syncytia/10^4 cells was 121 ± 16 for the control Sup T1 cells. The

[1] = test system: HIV-1 reverse-transcriptase; assay: Inhibition of HIV-1 reverse-transcriptase (RT) activity in culture supernatant of infected Sup T1 cells; format: cell-based; conditions: 300 μM, 6 h pretreatment of Sup T1 cells; supernatant 96 h post-infection; mean of duplicates, variance did not exceed 5-10%
Protocol: as §1
Sup T1 cells were treated with trimer core compound at 300 μM for 6 hours and then infected with HIV-1 at a multiplicity of infection of approximately 0.1. At 96 hours post-infection, culture supernatant was removed and HIV-1 RT activity was assayed […] as described by Henderson et al., Virology 1991, 182, 186. Briefly in this method, 25 μl of culture supernatant was added to a 50 μl cocktail containing 50 mM Tris (pH 8.0), 20 mM dithiothreitol, 10 mM MgCl2, 60 mM NaCl, 0.05% Nonidet p-40, 5 μg/ml oligodeoxythymidylic acid, 10 μg/ml polyriboadenylic acid, 10 μM deoxythymidine triphosphate and 1mCi [α^32 P]thymidine 5'-triphosphate. The mixture was incubated at 37° C. for 2 hours. Fifty microliters of the cocktail were then spotted onto diethylaminoethyl (DEAE) paper, dried, washed with 2×SSC solution (three times for 10 minutes each time) and 95% ethanol (two times for 5 minutes each time), dried and exposed to radiographic film for 18 to 24 hours at -80° C. The filters were cut and final quantitation was determined by scintillation spectrometry.
The data for the HIV-1 RT activity is shown in Table 1 as a percent of RT activity. Control values for RT activity ranged from 15,000 to 16,000 dpm [α^32 P] incorporated.
^c Percent inhibition of reverse-transcriptase (HIV-1 RT) activity.
Control values for HIV-1 RT activity ranged from 15000 to 16000 dpm
incorporated. The mean of duplicate determinations is shown; variance did

[2] = test system: recombinant human GST-RNase L; assay: Activation of recombinant human GST-RNase L (hydrolysis of poly(U)-3'-[^32 P]pCp); format: biochemical; conditions: 300 μM; mean of duplicates, variance did not exceed 5-10%
Protocol: as §1
Human recombinant RNase L was expressed in E. coli(DH5α) as a fusion protein of glutathione-S-transferase (GST). Activation of human recombinant GST-RNase L was measured as the percent of poly(U)[^32 P]pCp hydrolyzed in the presence of authentic 2',5'-oligoadenylate trimer core or trimer core analog of the invention as described by Sobol et al., J. Biol. Chem. 1995, 270, 5963. The data is shown in Table 1 as the mean of duplicate determinations.
^d The activation of recombinant human RNase L was measured as the
percent hydrolysis of poly(U)-3'-[^32 P]pCp in the presence of the
trimers 22-29. The mean of duplicate determinations is shown; variance did

| Substance | Syn: inhibition of HIV-1 replication, HIV-1-induced syncytia formation (fold reduction) (HIV-1) [fold] | RT: percent inhibition of reverse-transcriptase (HIV-1 RT) activity [1] [%] | RNase L: activation of recombinant human RNase L, percent hydrolysis of poly(U)-3'-[^32 P]pCp [2] [%] |
| --- | --- | --- | --- |
| 1-(β-D-Ribofuranosyl)-1H-1,2,4-triazole-3-carboxamide]yl-(2'-5')-adenylyl-(2'-5')-adenosine Bis(triethylammonium) Salt [Compound 28] | 1.2 | 99.5 | 0 |
| Adenylyl-(2'-5')-N^6 -benzyladenylyl-(2'-5')-adenosine Bis(triethylammonium) Salt [Compound 23] | > 1500 | 7.6 | 34.8 |
| Adenylyl-(2'-5')-[1-(β-D-ribofuranosyl)-1H-1,2,4-triazole-3-carboxamide]yl-(2'-5')-adenosine Bis(triethylammonium) Salt [Compound 27] | 7.0 | 99.7 | 9.4 |
| Adenylyl-(2'-5')-adenylyl-(2'-5')-1-(β-D-ribofuranosyl)-1H-1,2,4-triazole-3-carboxamide Bis(triethylammonium) Salt [Compound 26] | 1.6 | 99.7 | 87.7 |
| Adenylyl-(2'-5')-adenylyl-(2'-5')-N^6 -benzyladenosine Bis(triethylammonium) Salt [Compound 22] | > 1500 | 33 | 37.4 |
| N^6 -Benzyladenylyl-(2'-5')-N^6 -benzyladenylyl-(2'-5')-N^6 -benzyladenosine Bis(triethylammonium) Salt [Compound 25] | > 1500 | 10.6 | 13.6 |
| N^6 -Benzyladenylyl-(2'-5')-adenylyl-(2'-5')-adenosine Bis(triethylammonium) Salt [Compound 24] | > 1500 | 16.7 | 0 |
